Test results: patent US10287253B2, “Substituted pyrimidines containing acidic groups as TLR7 modulators” (Apros Therapeutics, Inc., priority 2016, dated 2019)

How the values were obtained:
human TLR7 (hTLR7) = human TLR7 (hTLR7) (Homo sapiens (Human), UniProt Q9NYK1); assay: HEK TLR7 assay (HEK-Blue hTLR7 cells, NF-kB/AP-1 SEAP reporter); format: cell-based; conditions: for EC50: HEK-Blue hTLR7 cells, 16 h incubation, SEAP read at 620-655 nm
Excerpt: HEK-Blue™ TLR7 cells were purchased from Invivogen (San Diego, Calif.). The following description was taken from the product information sheet.
“HEK-Blue™ hTLR7 cells are designed for studying the stimulation of human TLR7 (hTLR7) by monitoring the activation of NF-kB. HEK-Blue™ hTLR7 cells were obtained by co-transfection of the hTLR7 gene and an optimized secreted embryonic alkaline phosphatase (SEAP) reporter gene into HEK293 cells. The SEAP reporter gene is placed under the control of the IFN-b minimal promoter fused to five NF-kB and AP-1-binding sites. Stimulation with a TLR7 ligand activates NF-kB and AP-1 which induce the production of SEAP, which is detected by the HEK-Blue™ Detection cell culture medium.”
A typical assay protocol involved the following steps: • 1. Cells were cultured according to the product information sheet. • 2. 10 mM compound stock in DMSO were first diluted to 3 mM and then 3-fold serially diluted using DMSO to afford a 10-pt dilution. • 3. 3 μl of the diluted DMSO were added to 57 μl HEK-Blue™ Detection media for a further 20-fold dilution. • 4. 10 μl of the diluted compound in assay media were added into 40 μl cell culture (in HEK-Blue™ Detection media) in 384-well plate. Final cell concentration=8,000 cells per well. • 5. The plates were incubated at 37° C. in 5% CO2 for 16 h. SEAP was determined using a spectrophotometer at 620-655 nm.

[1] = Pharmacokinetics experiments: mouse liver-to-serum concentration (L:S); format: in vivo; conditions: BALB/c mice, 10 mg/kg p.o., 5 hour post dose
Method: BALB/c mice were dosed p.o. with 10 mg/kg compound formulated in 0.5% carboxy methycellulose+0.5% Tween-80 suspension. Mice were bled retro-orbitally at different time points post dose. Blood was processed into serum by centrifugation followed by protein precipitation, reverse-phase gradient elution and MRM detection via ESI+mass spectrometry to determine compound concentration. Animals were sacrificed after the final blood collection (5 hour), liver removed and flash frozen in liquid nitrogen for tissue PK analyses. The liver-to-serum concentration (L:S) at 5 hour post dose is one parameter for identifying compounds with potential enrichment in liver.
Mouse liver-to-serum concentration (L:S) table below provides results.

Sequence of human TLR7 (hTLR7) (Q9NYK1 27-1049): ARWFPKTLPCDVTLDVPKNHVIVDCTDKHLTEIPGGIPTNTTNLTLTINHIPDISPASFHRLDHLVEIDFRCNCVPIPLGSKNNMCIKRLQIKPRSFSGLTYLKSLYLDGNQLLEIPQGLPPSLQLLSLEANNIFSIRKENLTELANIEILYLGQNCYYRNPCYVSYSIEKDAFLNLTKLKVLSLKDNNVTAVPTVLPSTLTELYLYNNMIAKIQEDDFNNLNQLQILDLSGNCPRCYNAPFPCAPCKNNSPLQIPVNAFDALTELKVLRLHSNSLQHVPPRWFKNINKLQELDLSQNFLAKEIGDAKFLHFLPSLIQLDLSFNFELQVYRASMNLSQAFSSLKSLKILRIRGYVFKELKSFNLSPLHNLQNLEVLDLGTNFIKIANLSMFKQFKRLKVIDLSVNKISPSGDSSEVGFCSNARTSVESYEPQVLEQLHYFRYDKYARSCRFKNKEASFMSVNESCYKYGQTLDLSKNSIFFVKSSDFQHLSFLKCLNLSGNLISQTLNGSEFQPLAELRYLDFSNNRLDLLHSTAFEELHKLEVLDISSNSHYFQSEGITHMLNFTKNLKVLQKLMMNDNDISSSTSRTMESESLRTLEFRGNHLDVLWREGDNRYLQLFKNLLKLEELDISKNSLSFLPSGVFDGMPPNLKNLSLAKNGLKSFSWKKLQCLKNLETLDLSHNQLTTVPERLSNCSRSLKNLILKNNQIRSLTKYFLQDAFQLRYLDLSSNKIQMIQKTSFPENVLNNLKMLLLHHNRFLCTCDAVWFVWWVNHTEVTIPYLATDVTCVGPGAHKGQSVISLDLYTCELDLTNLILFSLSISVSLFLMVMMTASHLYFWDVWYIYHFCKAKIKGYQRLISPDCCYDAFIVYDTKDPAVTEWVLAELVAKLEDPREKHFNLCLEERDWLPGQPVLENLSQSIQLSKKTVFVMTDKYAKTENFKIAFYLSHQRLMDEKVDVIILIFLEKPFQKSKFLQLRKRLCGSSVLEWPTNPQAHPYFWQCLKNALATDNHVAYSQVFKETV

Compound	EC50 (human TLR7 (hTLR7))	potency of (S)-enantiomer relative to (R)-enantiomer (Compound 20C) in the HEK-TLR7 assay (human TLR7 (hTLR7); Compound 20 vs Compound 20C)	L:S at 5 hr (liver-to-serum concentration) [1]
CCCCNc1nc(N)nc(C)c1Cc1cc(C(C)(C)c2nn[nH]n2)ccc1OC [Compound 10, 5-(5-(2-(2H-tetrazol-5-yl)propan-2-yl)-2-methoxybenzyl)-N4-butyl-6-methylpyrimidine-2,4-diamine]	100 to 1000 nM	–	B (B = 10-100 represents moderate liver-enrichment)
CCCCNc1nc(N)nc(C)c1Cc1cc(-c2nn[nH]n2)ccc1OC [Compound 11, N4-butyl-5-(2-methoxy-5-(2H-tetrazol-5-yl)benzyl)-6-methylpyrimidine-2,4-diamine]	100 to 1000 nM	–	A (A = >100 represents high liver-enrichment)
CCCCNc1nc(N)nc(C)c1Cc1cc(P(=O)(O)O)ccc1OC [Compound 12, (3-((2-amino-4-(butylamino)-6-methylpyrimidin-5-yl)methyl)-4-methoxyphenyl)phosphonic acid]	100 to 1000 nM	–	B (B = 10-100 represents moderate liver-enrichment)
CCCCNc1nc(N)nc(C)c1Cc1cc(C2(c3nn[nH]n3)CC2)ccc1OC [Compound 13, 5-(5-(1-(2H-tetrazol-5-yl)cyclopropyl)-2-methoxybenzyl)-N4-butyl-6-methylpyrimidine-2,4-diamine]	100 to 1000 nM	–	B (B = 10-100 represents moderate liver-enrichment)
CCCCNc1nc(N)nc(CCC(=O)O)c1Cc1ccccc1OC [Compound 15, 3-(2-amino-6-(butylamino)-5-(2-methoxybenzyl)pyrimidin-4-yl)propanoic acid]	100 to 1000 nM	–	B (B = 10-100 represents moderate liver-enrichment)
CCCC[C@@H](CC(=O)O)Nc1nc(N)nc(C)c1Cc1cc(Cc2nn[nH]n2)ccc1OC [Compound 20, (S)-3-((5-(5-((2H-tetrazol-5-yl)methyl)-2-methoxybenzyl)-2-amino-6-methylpyrimidin-4-yl)amino)heptanoic acid]	100 to 1000 nM	> 10 fold	A (A = >100 represents high liver-enrichment)
CCCC[C@@H](CCSC)Nc1nc(N)nc(C)c1Cc1cc(Cc2nn[nH]n2)ccc1OC [Compound 22, (S)-5-(5-((2H-tetrazol-5-yl)methyl)-2-methoxybenzyl)-6-methyl-N^4-(1-(methylthio)heptan-3-yl)pyrimidine-2,4-diamine]	–	–	A (A = >100 represents high liver-enrichment)
CCCC[C@@H](CCS(C)(=O)=O)Nc1nc(N)nc(C)c1Cc1cc(Cc2nn[nH]n2)ccc1OC [Compound 23, (S)-5-(5-((2H-tetrazol-5-yl)methyl)-2-methoxybenzyl)-6-methyl-N^4-(1-(methylsulfonyl)heptan-3-yl)pyrimidine-2,4-diamine]	–	–	A (A = >100 represents high liver-enrichment)
CCCC[C@@H](CC(=O)O)Nc1nc(N)nc(CCC(=O)O)c1Cc1ccccc1OC [Compound 29, (S)-3-((2-amino-6-(2-carboxyethyl)-5-(2-methoxybenzyl)pyrimidin-4-yl)amino)heptanoic acid]	100 to 1000 nM	–	A (A = >100 represents high liver-enrichment)
CCCCNc1nc(N)nc(C)c1Cc1cc(C(=O)NCCCP(=O)(O)O)ccc1OC [Compound 30, (3-(3-((2-amino-4-(butylamino)-6-methylpyrimidin-5-yl)methyl)-4-methoxybenzamido)propyl)phosphonic acid]	100 to 1000 nM	–	A (A = >100 represents high liver-enrichment)
CCCCNc1nc(N)nc(CCC(=O)O)c1Cc1cc(Cc2nn[nH]n2)ccc1OC [Compound 40, 3-(5-(5-((2H-tetrazol-5-yl)methyl)-2-methoxybenzyl)-2-amino-6-(butylamino)pyrimidin-4-yl)propanoic acid]	100 to 1000 nM	–	A (A = >100 represents high liver-enrichment)
CCCC[C@@H](CC(=O)O)Nc1nc(N)nc(C)c1Cc1ccccc1OC [Compound 41, (S)-3-((2-amino-5-(2-methoxybenzyl)-6-methylpyrimidin-4-yl)amino)heptanoic acid]	100 to 1000 nM	–	B (B = 10-100 represents moderate liver-enrichment)
CCCC[C@@H](CC(=O)O)Nc1nc(N)nc(C)c1Cc1cc(C(C)(C)C(=O)O)ccc1OC [Compound 42, (S)-3-((2-amino-5-(5-(2-carboxypropan-2-yl)-2-methoxybenzyl)-6-methylpyrimidin-4-yl)amino)heptanoic acid]	100 to 1000 nM	–	A (A = >100 represents high liver-enrichment)

Second part, led by results:

EC50 (human TLR7 (hTLR7))	potency of (S)-enantiomer relative to (R)-enantiomer (Compound 20C) in the HEK-TLR7 assay (human TLR7 (hTLR7); Compound 20 vs Compound 20C)	Compound	L:S at 5 hr (liver-to-serum concentration) [1]
100 to 1000 nM	–	CCCCNc1nc(N)nc(C)c1Cc1cc(Cc2nn[nH]n2)ccc1OC [Compound 3, 5-(5-((2H-tetrazol-5-yl)methyl)-2-methoxybenzyl)-N4-butyl-6-methylpyrimidine-2,4-diamine]	A (A = >100 represents high liver-enrichment)
100 to 1000 nM	–	CCCCNc1nc(N)nc(C)c1Cc1cc(C(C)(C)C(=O)O)ccc1OC [Compound 9, 2-(3-((2-amino-4-(butylamino)-6-methylpyrimidin-5-yl)methyl)-4-methoxyphenyl)-2-methylpropanoic acid]	A (A = >100 represents high liver-enrichment)
< 100 nM	–	CCCCNc1nc(N)nc(C)c1Cc1cc(S(=O)(=O)O)ccc1OC [Compound 17, 3-((2-amino-4-(butylamino)-6-methylpyrimidin-5-yl)methyl)-4-methoxybenzenesulfonic acid]	B (B = 10-100 represents moderate liver-enrichment)
< 100 nM	–	CCCC[C@@H](CCO)Nc1nc(N)nc(C)c1Cc1cc(Cc2nn[nH]n2)ccc1OC [Compound 18, (S)-3-((5-(5-((2H-tetrazol-5-yl)methyl)-2-methoxybenzyl)-2-amino-6-methylpyrimidin-4-yl)amino)heptan-1-ol]	A (A = >100 represents high liver-enrichment)
< 100 nM	–	CCCCNc1nc(N)nc(C)c1Cc1cc(B(O)O)ccc1OC [Compound 24, (3-((2-amino-4-(butylamino)-6-methylpyrimidin-5-yl)methyl)-4-methoxyphenyl)boronic acid]	B (B = 10-100 represents moderate liver-enrichment)
< 100 nM	–	CCCC[C@@H](CCOC)Nc1nc(N)nc(C)c1Cc1cc(Cc2nn[nH]n2)ccc1OC [Compound 32, (S)-5-(5-((2H-tetrazol-5-yl)methyl)-2-methoxybenzyl)-N^4-(1-methoxyheptan-3-yl)-6-methylpyrimidine-2,4-diamine]	A (A = >100 represents high liver-enrichment)
< 100 nM	–	CCCC[C@@H](CCSC)Nc1nc(N)nc(C)c1Cc1cc(C(C)(C)C(=O)O)ccc1OC [Compound 33, (S)-2-(3-((2-amino-4-methyl-6-((1-(methylthio)heptan-3-yl)amino)pyrimidin-5-yl)methyl)-4-methoxyphenyl)-2-methylpropanoic acid]	A (A = >100 represents high liver-enrichment)
< 100 nM	–	CCCC[C@@H](CCSC)Nc1nc(N)nc(C)c1Cc1cc(-c2nn[nH]n2)ccc1OC [Compound 34, (S)-5-(2-methoxy-5-(2H-tetrazol-5-yl)benzyl)-6-methyl-N^4-(1-(methylthio)heptan-3-yl)pyrimidine-2,4-diamine]	A (A = >100 represents high liver-enrichment)
